pEC50, pIC50: −log10 of the molar value. Like-named read-outs stand apart in the source and are kept apart here.
Assays:
[1] = biological target: T1, CD73 protein (Homo sapiens, UniProt P21589); experiment: CD73 enzyme inhibition assay (Malachite Green Phosphate Detection Kit); type: biochemical; conditions: for pIC50: Tris-HCl pH 7.3, read-out: Potency (IC50 class) in CD73 enzyme assay; for inhibitory activity in the CD73 enzyme assay: result in words
T1 construct: purchased Novoprotein C446
T1 sequence (P21589 27-549): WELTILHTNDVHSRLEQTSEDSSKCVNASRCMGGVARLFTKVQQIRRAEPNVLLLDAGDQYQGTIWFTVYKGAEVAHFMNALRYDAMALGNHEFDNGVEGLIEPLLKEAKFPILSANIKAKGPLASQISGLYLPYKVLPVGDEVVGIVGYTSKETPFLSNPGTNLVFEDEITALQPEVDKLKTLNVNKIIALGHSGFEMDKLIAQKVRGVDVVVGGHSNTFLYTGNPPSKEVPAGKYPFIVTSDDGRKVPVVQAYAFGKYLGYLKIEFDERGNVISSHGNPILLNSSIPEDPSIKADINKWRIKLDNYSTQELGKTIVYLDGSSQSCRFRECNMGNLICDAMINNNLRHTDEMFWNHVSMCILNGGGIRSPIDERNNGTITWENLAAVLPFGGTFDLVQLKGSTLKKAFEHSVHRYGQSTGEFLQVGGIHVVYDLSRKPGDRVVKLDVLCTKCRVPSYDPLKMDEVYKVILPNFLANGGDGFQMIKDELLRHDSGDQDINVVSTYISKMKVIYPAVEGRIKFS
Procedure: To evaluate the inhibitory effect of selected compounds on CD73, Malachite Green Phosphate Detection Kit (R&D, Cat #DY996) was used. Briefly, compounds were dissolved and diluted to the desired concentration using phosphate-free buffer (Tris-HCl, pH 7.3). 25 μL of the compound solution was added to an equal volume of CD73 protein solution (2×concentration, 0.5 μg/mL, Novoprotein, Cat #C446), followed by a 5-minute incubation at room temperature. 10 μL of Malachite Green Reagent A was added to each well, mixed thoroughly and incubated for 10 minutes at room temperature. 10 μL of Malachite Green Reagent B was then added to each well, mixed thoroughly and incubated for 20 minutes at room temperature. Finally, the optical density of each well was determined using a microplate reader set to 620 nm.

[2] = Pharmacokinetic evaluation in ICR mice after intravenous injection; type: in vivo; conditions: mouse; ICR male mice, 1.0 mg/kg intravenous, plasma
Procedure: A test compound (1.0 mg/kg) was administered to fasted ICR male mice via intravenous injection, and blood samples were collected at time points of 0.08, 0.25, 0.5, 1, 2, 4, 6, 8 and 24 h after the administration. Plasma sample was separated by centrifugation (8000 rpm) and stored at −80° C. until the sample was analyzed. Concentrations of the test compound in the plasma were determined by HPLC-MS/MS: the plasma was dispensed into appropriate tubes containing internal standard and methanol or acetonitrile. The tubes were mixed vigorously for 3 minutes to achieve deproteinization and then centrifuged at 8000 rpm for 5 minutes. The supernatant was transferred to an autosampler vial, injected into the chromatographic system, and quantified on MS/MS detector. Pharmacokinetic parameters including AUC0-4, Cmax, Tmax, t1/2, MRT, Cl and Vd were calculated using WinNonlin 6.3 software. Table 3 summarizes key PK parameters for test compounds (AUC(0-t): the area under the curve from time 0 to time t; AUC(0-∞): the area under the curve from time 0 to infinity; t1/2: Half-life; CL: clearance; C0: the concentration of drug in blood if the drug molecules enter the circulation and are distributed immediately (i.e., at time 0)).

[3] = biological target: T2, Recombinant human 5′-nucleotidase (hCD73) (Homo sapiens, UniProt P21589); experiment: CD73 enzyme inhibition assay (recombinant hCD73, AMP substrate, phosphate detection); type: biochemical; conditions: 37° C. 20 min, absorbance 635 nm
T2 sequence (P21589 27-549): T1 sequence (P21589 27-549)
Procedure: Test compound solution preparation: Stock solution of a test compound was prepared in DMSO at 10 mM concentration. A series of preset 10-concentration solutions of a test compound were prepared by diluting the stock solution in 5-fold gradient dilution with DMSO.
Assay buffer (1×): […] Tris, 25 mM NaCl, 1 mM MgCl2, pH 7.5, 0.005% Tween-20 (freshly prepared, and ready for use).
An aliquot of 0.25 μL of compound solution or DMSO (blank control) was added to each test well of a micro well plate. Recombinant human 5′-nucleotidase (hCD73) was diluted to 1 nM in assay buffer; and an aliquot of 25 μL hCD73 (1 nM) solution was added to the corresponding wells of the plate. The contents of the well were well-mixed, and the plate was covered with sealing film, centrifuged at 1000 rpm for 30 sec., followed by incubation at room temperature for 15 min. AMP, the substrate, was diluted to 60 μM concentration in the assay buffer. To each reaction well was added 25 μL of AMP solution. After mixing well, the plate was covered with sealing film, centrifuged at 1000 rpm for 30 sec., and incubated at 37° C. for 20 min. The absorbance signal (end point) was measured on SPARK plate reader at 635 nm (See PiColorLock™ Gold Phosphate Detection System (Abcam) test kit for reference).
The reaction wells containing CD73 enzyme, substrate AMP and DMSO (no compound) were used as positive control, and the reaction wells containing substrate AMP and DMSO but no CD73 enzyme were used as negative control. The percent (%) inhibition at each concentration of compound was calculated based on and relative to the signal in the High and Low control wells contained within each assay plate. The High control wells were considered as 0% inhibition, and the low control wells, which didn't contain any compound but rather DMSO (final concentration=0.5%), as 100% inhibition. IC50 values were obtained using GraphPad Prism software.

[4] = tested on: human T cell; experiment: CD73 cellular assay (T cell stimulation assay: CellTiter-Glo proliferation and IFN-γ ELISA); type: cell-based; conditions: human T cells, anti-CD3/CD28, AMP + EHNA, 72 hours
Procedure: Day 2, human T cell seeding: (a) washing the coated plate (from Day 1) with sterilized PBS buffer (2×100 uL); (b) re-suspending T cells and adjusting cell density to 0.5×10^6 cells/mL with growth media (X-VIVO 15+1% Pen/strep+1% glutamine), and seeding 100 μL/well (50,000 cells/well) in 96-well plates; (c) diluting CD28 antibody for 8× working concentration (8 μg/mL) with growth media, giving 1 μg/mL of the final concentration, followed by addition of CD28 antibody (25 μL) to cell plate; incubating the plates under 5% CO2 at 37° C. for 60 min; (d) adding compound (25 μL, 8×dilution with growth media) to cell plate, and incubating the plates under 5% CO2 at 37° C. for 60 min; (e) adding AMP (25 μL) and EHNA (25 μL, 8×dilution with growth media) to cell plate; (f) incubating the plates under 5% CO2 at 37° C. for 72 hours.
Day 5, collecting cell growth media and testing cell proliferation: (a) centrifuging the cell plate (1,000 rpm) for 5 min; (b) harvesting 150 μL of the cell culture media from each well to 96 well plate, followed by measurement of IFN-r expression by ELISA test; (c) taking a portion of the cell culture supernatant for cytokine analysis, removing the remaining supernatant, followed by addition of fresh growth media (X-VIVO 15+1% Pen/strep+1% glutamine, 100 μL); (d) adding Celltiter-Glo solution (50 μL) into each well for the measurement of cell proliferation by: (e) incubating the plates at room temperature for 10 min on a shaker; (f) transferring 100 μL solution into 96-well white plate and taking the readout of the Celltiter-Glo data using a TECAN Reader.

Row | pIC50 [1] | clearance [2] | pIC50 [3] | Compound | other results
1 | < 7.00 |  |  | CCCCCCCCCCCCN(CCCCCCCCCCCC)c1nc(Cl)nc2c1ncn2[C@@H]1O[C@H](COP(=O)(O)CP(=O)(O)O)C(O)C1O (stereo partly drawn) [Compound 19] | 
2 |  | 0.133 mL/min/kg | 8.89 | O=P(O)(O)CP(=O)(O)OC[C@H]1O[C@@H](n2cnc3c(N4CC5(CCC5)c5ccccc54)nc(Cl)nc32)[C@@H](O)C1O (stereo partly drawn) [d-20] | 
3 | > 8.00 |  |  | O=P(O)(O)CP(=O)(O)OC[C@H]1O[C@@H](n2cnc3c(N4CCC5(CCCCC5)C4)nc(Cl)nc32)C(O)C1O (stereo partly drawn) [Compound 31] | 
4 |  |  | 8.86 | O=P(O)(O)CP(=O)(O)OC[C@H]1O[C@@H](n2cnc3c(N4CC(c5ccccc5)(c5ccccc5)C4)nc(Cl)nc32)C(O)C1O (stereo partly drawn) [d-35] | 
5 |  |  | 8.75 | O=P(O)(O)CP(=O)(O)OC[C@H]1O[C@@H](n2cnc3c(N4CCC(c5ccccc5)(c5ccccc5)C4)nc(Cl)nc32)C(O)C1O (stereo partly drawn) [d-33] | pEC50 ([4]; read-out: EC50 CTG (CellTiter-Glo, cell proliferation)): 8.39; pEC50 ([4]; read-out: EC50 IFN-γ (ELISA, indicator for T-cell activity)): 8.60
6 |  | 2.28 mL/min/kg | 8.85 | O=P(O)(O)CP(=O)(O)OC[C@H]1O[C@@H](n2cnc3c(N4CCC5(CC4)Cc4ccccc4C5)nc(Cl)nc32)[C@@H](O)C1O (stereo partly drawn) [d-21] | 
7 | > 8.00 |  |  | CCCCCCCCCCCCOC(=O)Nc1nc(Cl)nc2c1ncn2[C@@H]1O[C@H](COP(=O)(O)CP(=O)(O)O)C(O)C1O (stereo partly drawn) [Compound 15] | 
8 |  |  | 8.73 | O=P(O)(O)CP(=O)(O)OC[C@H]1O[C@@H](n2cnc3c(N4CC(c5ccccc5)C(c5ccccc5)C4)nc(Cl)nc32)C(O)C1O (stereo partly drawn) [d-36] | 
9 |  |  |  | O=P(O)(O)CP(=O)(O)CC[C@H]1O[C@@H](n2cnc3c(NCc4ccccc4)nc(Cl)nc32)C(O)C1O (stereo partly drawn) [a-1] | inhibitory activity in the CD73 enzyme assay [1]: showed inhibitory activity
10 |  |  | 9.12 | O=P(O)(O)CP(=O)(O)OC[C@H]1O[C@@H](n2cnc3c(N4CCC5(CCc6ccccc65)C4)nc(Cl)nc32)C(O)C1O (stereo partly drawn) [d-8] | 
11 | > 8.00 |  |  | O=P(O)(O)CP(=O)(O)OC[C@H]1O[C@@H](n2cnc3c(NCc4cccc5ccccc45)nc(Cl)nc32)C(O)C1O (stereo partly drawn) [Compound 6] | 
12 | > 8.00 |  |  | O=P(O)(O)CP(=O)(O)OC[C@H]1O[C@@H](n2cnc3c(NCc4ccc5ccccc5c4)nc(Cl)nc32)C(O)C1O (stereo partly drawn) [Compound 7] | 
13 |  | 0.1 mL/min/kg |  | O=P(O)(O)CP(=O)(O)OC[C@H]1O[C@@H](n2cnc3c(N4CC5(CCCCCC5)c5ccccc54)nc(Cl)nc32)[C@@H](O)C1O (stereo partly drawn) [d-22] | 
14 |  |  |  | C[C@]12C[C@@H]3C[C@](C)(C1)C[C@@](Nc1nc(Cl)nc4c1ncn4[C@@H]1O[C@H](CCP(=O)(O)CP(=O)(O)O)C(O)C1O)(C3)C2 (stereo partly drawn) [a-9] | inhibitory activity in the CD73 enzyme assay [1]: showed inhibitory activity
15 |  | 1.7 mL/min/kg | 9.40 | O=P(O)(O)CP(=O)(O)OC[C@H]1O[C@@H](n2cnc3c(N4CC5(CCCc6ccccc65)C4)nc(Cl)nc32)[C@@H](O)C1O (stereo partly drawn) [d-12] | 
16 |  |  |  | O=P(O)(O)CP(=O)(O)CC[C@H]1O[C@@H](n2cnc3c(N4CCC5(CCCCC5)C4)nc(Cl)nc32)C(O)C1O (stereo partly drawn) [a-31] | inhibitory activity in the CD73 enzyme assay [1]: showed inhibitory activity
17 | 7.00 to 8.00 |  |  | CC1(C)[C@@H]2CC[C@@]1(C)C(OC(=O)Nc1nc(Cl)nc3c1ncn3[C@@H]1O[C@H](COP(=O)(O)CP(=O)(O)O)C(O)C1O)C2 (stereo partly drawn) [Compound 23] | 
18 |  | 0.7 mL/min/kg |  | C[C@H](Nc1cc(Cl)nc2c1cnn2[C@@H]1O[C@H](COP(=O)(O)CP(=O)(O)O)[C@@H](O)[C@H]1O)c1ccccc1F [Compound a, AB680, reference compound] | 
19 |  | 0.75 mL/min/kg | 9.14 | O=P(O)(O)CP(=O)(O)OC[C@H]1O[C@@H](n2cnc3c(N4CC5(Cc6ccccc6C5)C4)nc(Cl)nc32)[C@@H](O)C1O (stereo partly drawn) [d-9] | 
20 |  |  | 8.72 | O=P(O)(O)CP(=O)(O)OC[C@H]1O[C@@H](n2cnc3c(N4CC(c5ccccc5)c5ccccc54)nc(Cl)nc32)C(O)C1O (stereo partly drawn) [Compound d-38] | 
21 | > 8.00 |  |  | O=P(O)(O)CP(=O)(O)OC[C@H]1O[C@@H](n2cnc3c(N4C5CCC4CC(O)C5)nc(Cl)nc32)C(O)C1O (stereo partly drawn) [Compound 51] | 
22 |  | 0.05 mL/min/kg | 8.82 | O=P(O)(O)CP(=O)(O)OC[C@H]1O[C@@H](n2cnc3c(N4CC5(CCCC5)c5ccccc54)nc(Cl)nc32)[C@@H](O)C1O (stereo partly drawn) [d-13] | 
23 | > 8.00 |  |  | O=P(O)(O)CP(=O)(O)OC[C@H]1O[C@@H](n2cnc3c(NC45CC6CC(CC(C6)C4)C5)nc(Cl)nc32)C(O)C1O (stereo partly drawn) [Compound 22] | 
24 | > 8.00 |  |  | C[C@]12C[C@@H]3C[C@](C)(C1)C[C@@](Nc1nc(Cl)nc4c1ncn4[C@@H]1O[C@H](COP(=O)(O)CP(=O)(O)O)C(O)C1O)(C3)C2 (stereo partly drawn) [Compound 9] | 
25 | > 8.00 |  |  | O=P(O)(O)CP(=O)(O)OC[C@H]1O[C@@H](n2cnc3c(NCc4ccccc4)nc(Cl)nc32)C(O)C1O (stereo partly drawn) [Compound 1] | 
26 |  | 2.55 mL/min/kg |  | O=P(O)(O)CP(=O)(O)OC[C@H]1O[C@@H](n2cnc3c(N4CCC5(CCCc6ccccc65)C4)nc(Cl)nc32)[C@@H](O)C1O (stereo partly drawn) [d-6] | 
27 |  | 0.0833 mL/min/kg | 8.74 | O=P(O)(O)CP(=O)(O)OC[C@H]1O[C@@H](n2cnc3c(N4CC5(CCCCC5)c5ccccc54)nc(Cl)nc32)[C@@H](O)C1O (stereo partly drawn) [d-7] | 
28 | 7.00 to 8.00 |  |  | O=C(CC12CC3CC(CC(C3)C1)C2)Nc1nc(Cl)nc2c1ncn2[C@@H]1O[C@H](COP(=O)(O)CP(=O)(O)O)C(O)C1O (stereo partly drawn) [Compound 16] | 

Source: US20240024346A1, “CD73 INHIBITORS AND PHARMACEUTICAL USES THEREOF” (RISEN (SUZHOU) PHARMA TECH CO., LTD., priority 2020, published 2024)
